What all share (assay type): cell-based
The target in experiment [1] is Mer (phospho-Mer, MERTK-transfected 293A cells) (Homo sapiens (Human), UniProt Q12866). Kind of experiment: Mer autophosphorylation ELISA in transient transfected 293A cells (Example H). Particulars: cellular activity; Mer autophosphorylation ELISA in transient transfected 293A cells. In a few lines:
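IC50 from 4-parameter logistic fit of phospho-Mer levels, quantified by ELISA against a phospho-Mer standard in lysates of MERTK-transfected 293A cells. Cells exposed 1 h to 8-point serial dilutions, serum-free, 0.3% DMSO; controls: DMSO (100%) and reference inhibitor (0%).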
On the technique in general: In an ELISA, binding on a coated surface is turned into a signal by an enzyme label.

The target in experiment [2] is Met (phospho-Met, HGF-stimulated PC-3 prostate cancer cells) (Homo sapiens (Human), UniProt P08581). Kind of experiment: Met autophosphorylation ELISA in PC-3 cells (Example F). Particulars: cellular activity; Met autophosphorylation ELISA in PC-3 cells; read-out: c-Met IC50. In a few lines:
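Sandwich ELISA for phospho-Met (panTyr) in PC-3 lysates. Cells starved 3 h serum-free, compound 1 h (8-pt curve, 0.3% DMSO), HGF 100 ng/mL 10 min. 100% = HGF + DMSO; 0% = HGF + reference inhibitor. IC50 by 4-parameter fit.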

The target in experiment [3] is KDR (phospho-KDR, VEGF165-stimulated HUVEC cells) (Homo sapiens (Human), UniProt P35968). The experiment in a line: KDR autophosphorylation ELISA in HUVEC cells (Example G). The following applies: cellular activity; KDR autophosphorylation ELISA in HUVEC cells. In a few lines: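 Inhibition of VEGF165-driven KDR autophosphorylation is measured in primary human umbilical vein endothelial cells after 24 h serum deprivation. Compound preincubation lasts 1 h before a 5-minute challenge with 100 ng/mL ligand, and phosphorylated receptor is then measured by ELISA in the lysates.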

For experiment [4], the target named is AXL (phospho-AXL, Gas6-stimulated A-172 glioblastoma cells) (Homo sapiens (Human), UniProt P30530). Kind of experiment: AXL autophosphorylation ELISA in A-172 cells (Example E). Particulars: cellular activity; AXL autophosphorylation ELISA in A-172 cells; read-out: Axl IC50. In a few lines:
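Phospho-AXL was measured by ELISA in lysates of Gas6-stimulated A-172 cells, starved 24 h in serum-free medium and exposed 1 h to an 8-point compound dilution at 0.3% DMSO.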

SMILES strings stand for the structures.

The record followed here is US12371428B2 (Exelixis, Inc., priority 2019, dated 2025).

The term IC50 denotes the concentration that gives 50% inhibition.

Chain of AXL (phospho-AXL, Gas6-stimulated A-172 glioblastoma cells) (P30530 26-894): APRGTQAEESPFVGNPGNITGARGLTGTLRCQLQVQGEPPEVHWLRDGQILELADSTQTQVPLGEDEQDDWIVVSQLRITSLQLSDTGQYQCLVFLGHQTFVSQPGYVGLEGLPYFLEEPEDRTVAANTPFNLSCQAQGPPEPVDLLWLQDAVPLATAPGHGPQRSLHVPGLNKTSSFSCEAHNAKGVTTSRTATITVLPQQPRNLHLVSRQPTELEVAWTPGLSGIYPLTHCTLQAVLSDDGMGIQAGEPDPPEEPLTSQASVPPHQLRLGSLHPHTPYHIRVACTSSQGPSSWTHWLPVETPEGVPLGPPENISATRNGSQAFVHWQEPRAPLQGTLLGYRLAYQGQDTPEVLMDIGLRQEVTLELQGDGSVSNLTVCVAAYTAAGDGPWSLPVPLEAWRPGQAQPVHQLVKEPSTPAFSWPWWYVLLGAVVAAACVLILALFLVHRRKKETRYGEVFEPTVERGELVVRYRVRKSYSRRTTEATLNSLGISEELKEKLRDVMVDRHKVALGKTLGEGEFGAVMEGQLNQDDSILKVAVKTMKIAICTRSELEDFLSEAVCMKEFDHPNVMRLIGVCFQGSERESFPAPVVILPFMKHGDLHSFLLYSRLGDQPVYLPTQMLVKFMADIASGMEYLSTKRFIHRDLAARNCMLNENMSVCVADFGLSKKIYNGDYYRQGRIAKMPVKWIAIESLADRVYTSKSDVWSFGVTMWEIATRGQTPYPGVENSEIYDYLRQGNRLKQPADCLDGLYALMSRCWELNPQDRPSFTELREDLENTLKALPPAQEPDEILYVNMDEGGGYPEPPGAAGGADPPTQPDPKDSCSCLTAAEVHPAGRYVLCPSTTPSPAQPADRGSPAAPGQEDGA
Chain of KDR (phospho-KDR, VEGF165-stimulated HUVEC cells) (P35968 20-1356): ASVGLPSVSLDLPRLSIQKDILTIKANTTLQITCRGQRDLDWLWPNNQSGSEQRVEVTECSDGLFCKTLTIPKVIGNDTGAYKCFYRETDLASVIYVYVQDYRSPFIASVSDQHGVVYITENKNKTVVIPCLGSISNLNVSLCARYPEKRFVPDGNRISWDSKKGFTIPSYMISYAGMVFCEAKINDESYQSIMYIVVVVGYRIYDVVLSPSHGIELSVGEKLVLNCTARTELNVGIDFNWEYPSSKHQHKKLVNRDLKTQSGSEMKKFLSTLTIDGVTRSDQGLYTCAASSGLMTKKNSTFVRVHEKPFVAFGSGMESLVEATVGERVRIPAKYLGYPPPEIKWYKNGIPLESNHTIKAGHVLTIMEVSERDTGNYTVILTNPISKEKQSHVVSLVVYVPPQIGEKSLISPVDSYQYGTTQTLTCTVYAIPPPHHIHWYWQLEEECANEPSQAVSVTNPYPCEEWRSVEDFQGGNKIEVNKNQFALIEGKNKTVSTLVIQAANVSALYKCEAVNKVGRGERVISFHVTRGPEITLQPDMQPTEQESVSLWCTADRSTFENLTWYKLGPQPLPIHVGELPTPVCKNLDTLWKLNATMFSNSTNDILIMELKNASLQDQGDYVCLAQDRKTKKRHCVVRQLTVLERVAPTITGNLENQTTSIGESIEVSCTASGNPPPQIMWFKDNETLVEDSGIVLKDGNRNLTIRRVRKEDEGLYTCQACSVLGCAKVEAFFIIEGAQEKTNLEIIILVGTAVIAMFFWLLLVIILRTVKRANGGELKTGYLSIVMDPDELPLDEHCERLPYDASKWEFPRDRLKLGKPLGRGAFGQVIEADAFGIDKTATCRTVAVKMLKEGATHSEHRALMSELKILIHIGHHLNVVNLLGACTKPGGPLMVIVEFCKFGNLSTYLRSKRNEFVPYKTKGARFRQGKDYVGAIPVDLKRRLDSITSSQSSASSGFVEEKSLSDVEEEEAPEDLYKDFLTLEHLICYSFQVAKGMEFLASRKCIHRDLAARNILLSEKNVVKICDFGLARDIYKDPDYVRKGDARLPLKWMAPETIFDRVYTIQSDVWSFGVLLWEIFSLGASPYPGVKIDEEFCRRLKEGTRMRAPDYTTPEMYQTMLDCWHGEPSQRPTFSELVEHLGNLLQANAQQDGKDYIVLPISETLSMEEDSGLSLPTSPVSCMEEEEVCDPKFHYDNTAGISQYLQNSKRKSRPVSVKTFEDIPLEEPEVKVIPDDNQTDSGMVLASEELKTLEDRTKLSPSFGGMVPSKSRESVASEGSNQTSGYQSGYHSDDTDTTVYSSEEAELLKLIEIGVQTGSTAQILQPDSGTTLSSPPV
Chain of Mer (phospho-Mer, MERTK-transfected 293A cells) (Q12866 21-999): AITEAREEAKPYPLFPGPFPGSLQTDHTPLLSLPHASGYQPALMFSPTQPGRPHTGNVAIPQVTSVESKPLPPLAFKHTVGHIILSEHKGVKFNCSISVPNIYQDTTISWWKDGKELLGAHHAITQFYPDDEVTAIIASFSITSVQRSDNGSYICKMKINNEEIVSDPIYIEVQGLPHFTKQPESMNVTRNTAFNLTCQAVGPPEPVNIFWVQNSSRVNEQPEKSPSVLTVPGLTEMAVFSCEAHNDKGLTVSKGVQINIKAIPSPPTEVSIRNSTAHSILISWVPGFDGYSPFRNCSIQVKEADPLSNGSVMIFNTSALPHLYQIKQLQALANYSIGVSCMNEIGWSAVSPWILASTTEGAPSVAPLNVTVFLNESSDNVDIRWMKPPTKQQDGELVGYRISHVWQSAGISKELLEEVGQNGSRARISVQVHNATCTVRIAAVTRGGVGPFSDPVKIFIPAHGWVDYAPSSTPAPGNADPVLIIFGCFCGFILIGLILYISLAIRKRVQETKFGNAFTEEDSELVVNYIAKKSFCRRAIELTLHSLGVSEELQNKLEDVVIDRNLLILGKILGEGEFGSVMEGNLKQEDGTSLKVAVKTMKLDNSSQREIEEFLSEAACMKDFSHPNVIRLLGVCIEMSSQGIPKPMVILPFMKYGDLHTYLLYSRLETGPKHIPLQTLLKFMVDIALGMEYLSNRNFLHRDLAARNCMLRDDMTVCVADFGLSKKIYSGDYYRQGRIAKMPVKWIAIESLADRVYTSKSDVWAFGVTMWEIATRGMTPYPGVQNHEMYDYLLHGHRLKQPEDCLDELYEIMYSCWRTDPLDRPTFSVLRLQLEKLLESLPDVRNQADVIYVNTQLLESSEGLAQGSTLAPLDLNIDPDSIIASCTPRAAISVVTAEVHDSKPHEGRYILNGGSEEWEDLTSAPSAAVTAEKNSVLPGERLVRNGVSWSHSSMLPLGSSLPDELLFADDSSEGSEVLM
Chain of Met (phospho-Met, HGF-stimulated PC-3 prostate cancer cells) (P08581 25-1390): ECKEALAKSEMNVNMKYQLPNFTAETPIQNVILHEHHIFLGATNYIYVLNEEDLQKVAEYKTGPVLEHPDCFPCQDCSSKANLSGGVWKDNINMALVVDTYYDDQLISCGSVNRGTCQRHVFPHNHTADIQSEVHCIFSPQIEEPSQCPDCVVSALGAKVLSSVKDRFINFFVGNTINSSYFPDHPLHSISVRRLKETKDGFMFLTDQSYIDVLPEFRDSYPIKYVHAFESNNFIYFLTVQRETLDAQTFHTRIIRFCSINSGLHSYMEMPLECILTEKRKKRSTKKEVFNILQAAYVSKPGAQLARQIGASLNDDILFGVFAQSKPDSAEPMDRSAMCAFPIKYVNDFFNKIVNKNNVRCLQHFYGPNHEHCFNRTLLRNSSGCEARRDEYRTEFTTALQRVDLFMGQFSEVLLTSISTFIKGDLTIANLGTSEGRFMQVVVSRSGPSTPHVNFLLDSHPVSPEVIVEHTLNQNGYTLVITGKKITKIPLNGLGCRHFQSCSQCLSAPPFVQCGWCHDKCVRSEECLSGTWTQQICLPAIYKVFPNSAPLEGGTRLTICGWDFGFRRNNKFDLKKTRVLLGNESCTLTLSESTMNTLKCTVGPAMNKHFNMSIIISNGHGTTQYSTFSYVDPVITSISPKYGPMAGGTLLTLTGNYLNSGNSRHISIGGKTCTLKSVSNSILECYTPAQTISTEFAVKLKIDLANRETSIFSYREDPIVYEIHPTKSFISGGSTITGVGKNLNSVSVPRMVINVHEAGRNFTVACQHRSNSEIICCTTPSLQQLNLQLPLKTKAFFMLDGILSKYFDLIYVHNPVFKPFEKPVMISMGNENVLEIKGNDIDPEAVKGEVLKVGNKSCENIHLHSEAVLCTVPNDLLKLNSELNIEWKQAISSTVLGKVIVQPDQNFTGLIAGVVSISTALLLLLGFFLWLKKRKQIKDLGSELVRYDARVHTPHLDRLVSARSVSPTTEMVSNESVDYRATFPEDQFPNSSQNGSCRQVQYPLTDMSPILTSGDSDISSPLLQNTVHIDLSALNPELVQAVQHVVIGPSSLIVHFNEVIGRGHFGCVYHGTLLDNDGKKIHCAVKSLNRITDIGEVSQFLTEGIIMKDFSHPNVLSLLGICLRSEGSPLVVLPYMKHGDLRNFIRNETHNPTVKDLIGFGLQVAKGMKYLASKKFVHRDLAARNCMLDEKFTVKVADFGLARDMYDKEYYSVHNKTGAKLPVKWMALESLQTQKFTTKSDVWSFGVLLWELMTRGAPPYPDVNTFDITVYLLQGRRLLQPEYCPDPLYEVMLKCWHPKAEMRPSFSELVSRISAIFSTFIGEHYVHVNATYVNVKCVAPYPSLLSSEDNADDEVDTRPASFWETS

As for `COc1cc2nccc(Oc3ccc(NC(=O)c4cccn(-c5ccc(F)cc5)c4=O)cc3)c2nc1OC` [Compound 361, N-[4-[(6,7-dimethoxy-1,5-naphthyridin-4-yl)oxy]phenyl]-1-(4-fluorophenyl)-2-oxopyridine-3-carboxamide], the IC50 in experiment [1], in experiment [2], in experiment [3] and in experiment [4] was less than 100 nM each time.
For the molecule `COc1cc2nccc(Oc3ccc(NC(=O)c4cn5c(c(-c6ccc(F)cc6)c4=O)CCC5)cc3F)c2nc1OC` [Compound 362, N-[4-[(6,7-dimethoxy-1,5-naphthyridin-4-yl)oxy]-3-fluorophenyl]-8-(4-fluorophenyl)-7-oxo-2,3-dihydro-1H-indolizine-6-carboxamide], the IC50 in experiment [1], in experiment [2], in experiment [3] and in experiment [4] was less than 100 nM throughout.
In the case of `COc1cc2nccc(Oc3ccc(NC(=O)c4cn5c(c(-c6ccc(F)cc6)c4=O)CCCC5)cc3F)c2nc1OC` [Compound 363, N-[4-[(6,7-dimethoxy-1,5-naphthyridin-4-yl)oxy]-3-fluorophenyl]-1-(4-fluorophenyl)-2-oxo-6,7,8,9-tetrahydroquinolizine-3-carboxamide], the IC50 in experiment [1], in experiment [2], in experiment [3] and in experiment [4] was less than 100 nM throughout.
As for `CNc1nccc2c(Oc3ccc(NC(=O)c4cnc(C)c(-c5ccc(F)cc5)c4O)cc3)ccnc12` [Compound 387, 5-(4-fluorophenyl)-4-hydroxy-6-methyl-N-[4-[[8-(methylamino)-1,7-naphthyridin-4-yl]oxy]phenyl]pyridine-3-carboxamide], the IC50 in experiment [1], in experiment [2], in experiment [3] and in experiment [4] was less than 100 nM in each case.
For `COc1cc2nccc(Oc3ccc(NC(=O)c4cnc(C)c(-c5ccc(F)cc5F)c4O)cc3F)c2nc1OC` [Compound 395, 5-(2,4-difluorophenyl)-N-[4-[(6,7-dimethoxy-1,5-naphthyridin-4-yl)oxy]-3-fluorophenyl]-4-hydroxy-6-methylpyridine-3-carboxamide], the IC50 in experiment [1], in experiment [2], in experiment [3] and in experiment [4] was less than 100 nM in each case.
In the case of `COc1cc2nccc(Oc3ccc(NC(=O)c4cn(C)c(C)c(-c5ccc(F)cc5F)c4=O)cc3)c2nc1OC` [Compound 396, 5-(2,4-difluorophenyl)-N-[4-[(6,7-dimethoxy-1,5-naphthyridin-4-yl)oxy]phenyl]-1,6-dimethyl-4-oxopyridine-3-carboxamide], the IC50 in experiment [1], in experiment [2], in experiment [3] and in experiment [4] was less than 100 nM in each case.
With `Cc1cc2nccc(Oc3ccc(NC(=O)c4c(C)nc(C)c(-c5ccc(F)cc5)c4O)cc3F)c2nc1F` [Compound 445, N-[3-fluoro-4-[(6-fluoro-7-methyl-1,5-naphthyridin-4-yl)oxy]phenyl]-5-(4-fluorophenyl)-4-hydroxy-2,6-dimethylpyridine-3-carboxamide], the IC50 in experiment [1], in experiment [2], in experiment [3] and in experiment [4] was less than 100 nM in each case.
Consider `COCc1nc(C)c(-c2ccc(F)cc2)c(O)c1C(=O)Nc1ccc(Oc2ccnc3cc(C)c(F)nc23)c(F)c1` [Compound 446, N-[3-fluoro-4-[(6-fluoro-7-methyl-1,5-naphthyridin-4-yl)oxy]phenyl]-5-(4-fluorophenyl)-4-hydroxy-2-(methoxymethyl)-6-methylpyridine-3-carboxamide], for which the IC50 in experiment [1], in experiment [2], in experiment [3] and in experiment [4] was less than 100 nM throughout.
For `C=C(C)c1cnc2c(Oc3ccc(NC(=O)c4c(C)nc(C)c(-c5ccc(F)cc5C)c4O)cc3F)ccnc2c1` [Compound 461, 5-(4-fluoro-2-methylphenyl)-N-[3-fluoro-4-[(7-prop-1-en-2-yl-1,5-naphthyridin-4-yl)oxy]phenyl]-4-hydroxy-2,6-dimethylpyridine-3-carboxamide], the half-maximal inhibitory concentration (IC50) in experiment [1], in experiment [2], in experiment [3] and in experiment [4] was less than 100 nM each time.
For `C=C(C)c1cnc2c(Oc3ccc(NC(=O)c4cnc(C)n(-c5ccc(F)cc5)c4=O)cc3)ccnc2c1` [Compound 462, 1-(4-fluorophenyl)-2-methyl-6-oxo-N-[4-[(7-prop-1-en-2-yl-1,5-naphthyridin-4-yl)oxy]phenyl]pyrimidine-5-carboxamide], the IC50 in experiment [1], in experiment [2], in experiment [3] and in experiment [4] was less than 100 nM throughout.
As for `C=C(C)c1cnc2c(Oc3ccc(NC(=O)c4n[nH]c(C)c(-c5ccc(F)cc5C)c4=O)cc3F)ccnc2c1` [Compound 463, 5-(4-fluoro-2-methylphenyl)-N-[3-fluoro-4-[(7-prop-1-en-2-yl-1,5-naphthyridin-4-yl)oxy]phenyl]-6-methyl-4-oxo-1H-pyridazine-3-carboxamide], the half-inhibitory concentration (IC50) in experiment [1], in experiment [2], in experiment [3] and in experiment [4] was less than 100 nM each time.
On to `C=C(C)c1cnc2c(Oc3ccc(NC(=O)c4n[nH]c(C)c(-c5ccc(F)cc5)c4=O)cc3F)ccnc2c1` [Compound 464, 5-(4-fluorophenyl)-N-[3-fluoro-4-[(7-prop-1-en-2-yl-1,5-naphthyridin-4-yl)oxy]phenyl]-6-methyl-4-oxo-1H-pyridazine-3-carboxamide], for which the IC50 in experiment [1], in experiment [2], in experiment [3] and in experiment [4] was less than 100 nM each time.
With `C=C(C)c1cnc2c(Oc3ccc(NC(=O)c4cnc(C)n(-c5ccc(F)cc5)c4=O)cc3F)ccnc2c1` [Compound 465, 1-(4-fluorophenyl)-N-[3-fluoro-4-[(7-prop-1-en-2-yl-1,5-naphthyridin-4-yl)oxy]phenyl]-2-methyl-6-oxopyrimidine-5-carboxamide], the 50% inhibitory concentration (IC50) in experiment [1] is less than 100 nM; in experiment [2], less than 100 nM; in experiment [3], 100 to 300 nM; in experiment [4] it was less than 100 nM.
For `C=C(C)c1cnc2c(Oc3ccc(NC(=O)c4c(C)nc(C)n(-c5ccc(F)cc5)c4=O)cc3F)ccnc2c1` [Compound 466, 1-(4-fluorophenyl)-N-[3-fluoro-4-[(7-prop-1-en-2-yl-1,5-naphthyridin-4-yl)oxy]phenyl]-2,4-dimethyl-6-oxopyrimidine-5-carboxamide], the half-maximal inhibitory concentration (IC50) in experiment [1], in experiment [2], in experiment [3] and in experiment [4] was less than 100 nM in each case.
Turning to `C=C(C)c1cnc2c(Oc3ccc(NC(=O)c4c(C)nc(C)n(-c5ccc(F)cc5)c4=O)cc3)ccnc2c1` [Compound 467, 1-(4-fluorophenyl)-2,4-dimethyl-6-oxo-N-[4-[(7-prop-1-en-2-yl-1,5-naphthyridin-4-yl)oxy]phenyl]pyrimidine-5-carboxamide], the IC50 in experiment [1], in experiment [2], in experiment [3] and in experiment [4] was less than 100 nM in each case.
As for `COc1nc2c(Oc3ccc(NC(=O)c4c(C)nc(C)n(-c5ccc(F)cc5)c4=O)cc3F)ccnc2cc1C` [Compound 468, N-[3-fluoro-4-[(6-methoxy-7-methyl-1,5-naphthyridin-4-yl)oxy]phenyl]-1-(4-fluorophenyl)-2,4-dimethyl-6-oxopyrimidine-5-carboxamide], the half-inhibitory concentration (IC50) in experiment [1], in experiment [2], in experiment [3] and in experiment [4] was less than 100 nM in each case.
On to `COCc1nc(C)c(-c2ccc(F)cc2)c(O)c1C(=O)Nc1ccc(Oc2ccnc3cc(C)c(OC)nc23)c(F)c1` [Compound 469, N-[3-fluoro-4-[(6-methoxy-7-methyl-1,5-naphthyridin-4-yl)oxy]phenyl]-5-(4-fluorophenyl)-4-hydroxy-2-(methoxymethyl)-6-methylpyridine-3-carboxamide], for which the IC50 in experiment [1], in experiment [2], in experiment [3] and in experiment [4] was less than 100 nM in each case.
As to `COCc1nc(C)c(-c2ccc(F)cc2C)c(O)c1C(=O)Nc1ccc(Oc2ccnc3cc(C)c(OC)nc23)c(F)c1` [Compound 470, N-[3-fluoro-4-[(6-methoxy-7-methyl-1,5-naphthyridin-4-yl)oxy]phenyl]-5-(4-fluoro-2-methylphenyl)-4-hydroxy-2-(methoxymethyl)-6-methylpyridine-3-carboxamide], the IC50 in experiment [1], in experiment [2], in experiment [3] and in experiment [4] was less than 100 nM each time.
